Experiments:
[1] = Preservation of vitamin D3 tablets at 60° C., absorbance at 265 nm; assay type: physicochemical; conditions: for Amount of vitamin D3: per one gram of vitamin D3 tablet
Protocol: Vitamin D3 (cholecalciferol), as vitamin D, commercialized by Wako Pure Chemical Industries Ltd., Tokyo, Japan, was dissolved in ethanol with the highest purity, commercialized by Katayama Chemical Industries Co., Ltd., Osaka, Japan, to make into an ethanol solution with a vitamin D3 content of 3%. To eight grams of the powdery anhydrous cyclotetrasaccharide, prepared in Example 3, was added 1.5 ml of the above ethanol solution and the resulting mixture was pulverized similarly as in Example 20, dried under a reduced pressure, and made into a powdery vitamin D3 preparation containing cyclotetrasaccharide. […] About 0.3 gram each of the powdery vitamin D3 preparations containing any one of the above saccharides was made into a vitamin D3 tablet by pressurizing at 200 kg/cm^2 for two minutes using a tablet machine. Vitamin D3 tablets thus obtained were weighted and each one tablet of which was placed in a 20 ml-glass vial and sealed to obtain five kinds of vitamin D3 tablets containing a saccharide. The vials were preserved under a normal pressure at 60° C. and the amount of vitamin D3 remaining in the vials was examined just after preparation, after preserving for two hours, one day, two days, and seven days, respectively. The amount of vitamin D3 in each tablet was determined by: adding 10 ml of 70% aqueous ethanol solution to each vial containing any of the test samples; crushing the tablets using a glass rod before extracting vitamin D3; filling up the total volume to 50 ml with 70% aqueous ethanol solution; centrifuging the resulting solutions at 10,000 rpm for 10 minutes; filtrating the resulting supernatants; and measuring the absorbance at a wavelength of 265 nm for the resulting filtrates. The amount of vitamin D3 was calculated based on the absorbance coefficient (E1%) at a wavelength of 265 nm, which was regarded as 475. The amount of vitamin D3 (mg) per one gram of each of the vitamin D3 tablets and the residual vitamin D3 (%) was calculated based on the amount of vitamin D3 in the test samples just after preparation, which was regarded as 100%. The results are in Table

calf serum albumin (BSA) = test: Modification of BSA by lipid peroxides (protein carbonyl, OLAARPs); assay type: biochemical; conditions: for OLAARPs Formation: (%) / Protein carbonyl Formation: (%): BSA, versus no saccharide; for Formed OLAARPs / Formed Protein carbonyl: 37° C., 24 hours
Protocol: In this experiment, saccharide solutions were prepared to give an equal total saccharide molar concentration in each solution.
As a negative control, PBS was used.
To five milliliters of either of the above saccharide solutions for testing or the negative control was added 10 mg of calf serum albumin (BSA) or L-lysine, followed by dissolving. To each of the resulting solutions was added 25 μg of 2,4-decadienal or malondialdehyde (MDA) as a lipid peroxide, followed by reaction at 37° C. for 24 hours. After completion of the reaction, protein carbonyl and reaction products of oxidized lipids/aminoacids (OLAARPs) formed as aldehyde adducts were quantified on the calorimetric method. […] The formation levels of protein carbonyl and OLAARPs were determined based on the absorbances obtained in this experiment, in terms of the molar absorbance coefficient for each molecule as disclosed in Biochim. Biophys.
To each of the resulting mixtures was added 600 μl of 30% trichloroacetic acid, and the mixture was allowed to stand at 0° C. for one hour and centrifuged at 10,000 rpm for 15 min to obtain a precipitate, followed by washing the resulting precipitate four times with two milliliters of ethanol/ethylacetate (1:1), respectively, adding 1.5 ml of 6M-guanidine hydrochloride/20 mM-NaPi/TFA (pH 2.3) to the resultant, allowing the mixture to stand at 37° C. for 30 min, and measuring the absorbance of the resulting mixture at a wavelength of 580 nm, ε=35,000 M^−1 cm^−1.

[2] = Preservation of powdery vitamin E preparations at 60° C., GC; assay type: physicochemical; conditions: for Amount of vitamin E: per one gram of vitamin E preparation
Protocol: Vitamin E (α-tocopherol) commercialized by Wako Pure Chemical Industries Ltd., Tokyo, Japan, was dissolved in ethanol (a special grade reagent, commercialized by Katayama Chemical Industries Co., Ltd., Osaka, Japan) to make into an ethanol solution with a vitamin E content of 10%. Ten grams of the powdery anhydrous cyclotetrasaccharide, prepared in Example 3, were placed in a glass mortar and then a small amount of […] was added to the cyclotetrasaccharide. Using a glass rod, the mixture was repeatedly mixed with additional ethanol or acetic acid until the mixture could not keep its powdery form. Thus, a vitamin E preparation was obtained. As controls, vitamin E preparations were prepared by using “ISOELITE P™”, a powdery branched cyclodextrin commercialized by Ensuiko Sugar Refining Co., Ltd., Tokyo, Japan, a powdery anhydrous crystalline α,α-trehalose prepared according to the method disclosed in Japanese Patent Kokai No. 213,283/95, “PINEFIBER™”, a powdery dextrin product commercialized by Matsutani Chemical Industries Co., Ltd., Hyogo, Japan, or a soluble starch commercialized by Katayama Chemical Industries Co., Ltd., Osaka, Japan, except for using cyclotetrasaccharide by the same procedure. Successively, each powdery vitamin E preparation was dried under a reduced pressure by keeping the preparation at ambient temperature for five hours in a desiccators containing (P2O5) to evaporate ethanol. About 0.5 gram each of the five powdery vitamin E preparations containing any one of those saccharides was weighted and placed in 20 ml-glass vials and sealed. […] The amount of vitamin E in each sample was determined by: adding 10 ml of ethanol to each of the vials containing the test samples; extracting vitamin E by shaking the resulting suspensions; centrifuging the suspensions at 10,000 rpm for 10 minutes; and measuring the amount of vitamin E in the resulting supernatants by gas-chromatography (GC). GC was carried out using “GC-14A”, a GL apparatus produced by Shimadzu Corporation, Kyoto, Japan, installed with “DB-1”, a column (internal diameter: 0.25 mm, length: 30 m) commercialized by Agilent Technologies, USA (former name; J & W Scientific, USA). The amount of vitamin E (mg) per one gram of a vitamin E preparation and the residual vitamin E (%) was calculated and expressed with a relative value, when the amount of vitamin E in each test sample just after its preparation was regarded as 100%, as shown in Table 11.

[3] = just after its preparation (regarded as 100%)
[4] = added lipid peroxide 2,4-decadienal
[5] = added lipid peroxide malondialdehyde (MDA)
[6] = 2,4-decadienal, listed as cyclotetrasaccharide
[7] = MDA, listed as cyclotetrasaccharide

## OC[C@H]1O[C@H](O[C@H]2O[C@H](CO)[C@@H](O)[C@H](O)[C@H]2O)[C@H](O)[C@@H](O)[C@@H]1O [α, α-Trehalose, α, α-trehalose, reference compound]
[1]; [3]
  Residual D3 percentage (%): (100) %
[1]; one day at 60° C.
  Residual D3 percentage (%): (24) %
  Amount of vitamin D3: 1.11 mg
[1]; just after its preparation
  Amount of vitamin D3: 4.67 mg
[1]; seven days at 60° C.
  Amount of vitamin D3: 1.05 mg
  Residual D3 percentage (%): (22) %
[1]; two days at 60° C.
  Amount of vitamin D3: 1.02 mg
  Residual D3 percentage (%): (22) %
[1]; two hours at 60° C.
  Amount of vitamin D3: 1.58 mg
  Residual D3 percentage (%): (34) %
Calf serum albumin (BSA); 2,4-decadienal
  OLAARPs Formation: (%): (63) %
  Protein carbonyl Formation: (%): (58) %
Calf serum albumin (BSA); MDA
  OLAARPs Formation: (%): (56) %
  Protein carbonyl Formation: (%): (60) %
Calf serum albumin (BSA); [4]
  Formed OLAARPs: 2.67 μmol/g-BSA
  Formed Protein carbonyl: 8.26 μmol/g-BSA
Calf serum albumin (BSA); [5]
  Formed OLAARPs: 3.24 μmol/g-BSA
  Formed Protein carbonyl: 1.45 μmol/g-BSA
[2]; 0 days (regarded as 100%)
  Residual vitamin E (%): (100) %
[2]; 1 day at 60° C.
  Residual vitamin E (%): (99) %
  Amount of vitamin E: 36.2 mg
[2]; 3 days at 60° C.
  Residual vitamin E (%): (85) %
  Amount of vitamin E: 31.0 mg
[2]; 7 days at 60° C.
  Residual vitamin E (%): (73) %
  Amount of vitamin E: 26.6 mg
[2]; 14 days at 60° C.
  Residual vitamin E (%): (41) %
  Amount of vitamin E: 15.1 mg
[2]; 0 days at 60° C.
  Amount of vitamin E: 36.7 mg

## OCC1OC2OCC3O[C@H](O[C@H]4C(O)C(CO)OC(OCC5O[C@H](O[C@@H](C1O)C2O)C(O)C(O)[C@@H]5O)C4O)C(O)C(O)[C@@H]3O (stereo partly drawn) [Cyclotetrasaccharide, cyclo{→6}-α-D-glucopyranosyl-(1→3)-α-D-glucopyranosyl-(1→6)-α-D-glucopyranosyl-(1→3)-α-D-glucopyranosyl-(1→}]
[1]; [3]
  Residual D3 percentage (%): (100) %
[1]; one day at 60° C.
  Residual D3 percentage (%): (66) %
  Amount of vitamin D3: 3.49 mg
[1]; just after its preparation
  Amount of vitamin D3: 5.27 mg
[1]; seven days at 60° C.
  Amount of vitamin D3: 2.65 mg
  Residual D3 percentage (%): (50) %
[1]; two days at 60° C.
  Amount of vitamin D3: 2.91 mg
  Residual D3 percentage (%): (55) %
[1]; two hours at 60° C.
  Amount of vitamin D3: 4.57 mg
  Residual D3 percentage (%): (87) %
[1]; seven days at 60° C., listed as cyclotetrasaccharide
  Residual D3 percentage (%): 90%
Calf serum albumin (BSA); 2,4-decadienal
  OLAARPs Formation: (%): (69) %
  Protein carbonyl Formation: (%): (45) %
Calf serum albumin (BSA); [6]
  OLAARPs Formation: (%): about 69%
  Protein carbonyl Formation: (%): about 45%
Calf serum albumin (BSA); MDA
  OLAARPs Formation: (%): (80) %
  Protein carbonyl Formation: (%): (45) %
Calf serum albumin (BSA); [7]
  OLAARPs Formation: (%): about 80%
  Protein carbonyl Formation: (%): about 45%
Calf serum albumin (BSA); [4]
  Formed OLAARPs: 2.92 μmol/g-BSA
  Formed Protein carbonyl: 6.34 μmol/g-BSA
Calf serum albumin (BSA); [5]
  Formed OLAARPs: 4.68 μmol/g-BSA
  Formed Protein carbonyl: 1.09 μmol/g-BSA
[2]; 0 days (regarded as 100%)
  Residual vitamin E (%): (100) %
[2]; 1 day at 60° C.
  Residual vitamin E (%): (98) %
  Amount of vitamin E: 74.4 mg
[2]; 3 days at 60° C.
  Residual vitamin E (%): (95) %
  Amount of vitamin E: 72.0 mg
[2]; 7 days at 60° C.
  Residual vitamin E (%): (90) %
  Amount of vitamin E: 68.5 mg
[2]; 14 days at 60° C.
  Residual vitamin E (%): (61) %
  Amount of vitamin E: 46.3 mg
[2]; 0 days at 60° C.
  Amount of vitamin E: 75.9 mg
